Source: ChEMBL document CHEMBL5465560, “Selectivity Literature for EUbOPEN Chemogenomic Library” (2024)

Experiments:
[1] = target: T1, Mitogen-activated protein kinase kinase kinase 5 (Homo sapiens) (UniProt Q99683); experiment: Selectivity interaction (KinomeScan (DiscoverX)) EUB0000092b MAP3K5; details: at 10 µM
T1 sequence (whole entry): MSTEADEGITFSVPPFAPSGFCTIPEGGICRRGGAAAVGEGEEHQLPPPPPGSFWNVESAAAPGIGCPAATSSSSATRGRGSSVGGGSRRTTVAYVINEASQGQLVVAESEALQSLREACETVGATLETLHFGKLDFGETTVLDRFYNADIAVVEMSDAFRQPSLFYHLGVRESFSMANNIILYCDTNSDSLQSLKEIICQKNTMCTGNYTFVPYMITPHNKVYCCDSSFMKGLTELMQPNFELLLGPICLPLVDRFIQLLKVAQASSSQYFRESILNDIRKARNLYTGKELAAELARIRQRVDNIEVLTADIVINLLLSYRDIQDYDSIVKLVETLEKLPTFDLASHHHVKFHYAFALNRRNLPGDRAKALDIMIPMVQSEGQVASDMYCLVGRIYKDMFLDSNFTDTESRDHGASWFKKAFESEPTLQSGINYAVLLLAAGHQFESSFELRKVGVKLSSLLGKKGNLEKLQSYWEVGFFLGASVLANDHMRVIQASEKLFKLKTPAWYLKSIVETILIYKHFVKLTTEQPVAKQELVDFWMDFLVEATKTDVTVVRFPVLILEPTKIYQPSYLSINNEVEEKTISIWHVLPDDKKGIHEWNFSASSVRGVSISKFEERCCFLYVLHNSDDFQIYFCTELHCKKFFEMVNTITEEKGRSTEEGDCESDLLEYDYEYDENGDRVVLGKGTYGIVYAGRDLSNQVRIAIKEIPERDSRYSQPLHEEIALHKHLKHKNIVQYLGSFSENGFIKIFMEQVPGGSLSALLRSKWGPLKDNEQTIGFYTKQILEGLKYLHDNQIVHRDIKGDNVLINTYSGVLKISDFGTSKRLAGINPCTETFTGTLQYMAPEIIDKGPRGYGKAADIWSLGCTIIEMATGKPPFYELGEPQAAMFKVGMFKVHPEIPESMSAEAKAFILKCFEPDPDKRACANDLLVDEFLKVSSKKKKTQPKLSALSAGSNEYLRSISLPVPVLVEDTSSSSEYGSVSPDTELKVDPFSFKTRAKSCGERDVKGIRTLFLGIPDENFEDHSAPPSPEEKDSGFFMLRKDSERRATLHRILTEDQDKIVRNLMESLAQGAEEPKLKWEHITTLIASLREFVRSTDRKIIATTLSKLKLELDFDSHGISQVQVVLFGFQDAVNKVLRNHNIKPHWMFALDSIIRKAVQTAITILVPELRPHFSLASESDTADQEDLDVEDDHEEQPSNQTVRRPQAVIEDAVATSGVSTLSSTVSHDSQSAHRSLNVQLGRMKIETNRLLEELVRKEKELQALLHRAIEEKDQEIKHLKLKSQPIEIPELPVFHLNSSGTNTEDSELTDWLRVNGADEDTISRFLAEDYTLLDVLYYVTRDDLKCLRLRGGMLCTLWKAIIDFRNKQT

[2] = target: T2, Serine/threonine-protein kinase DCLK2 (Homo sapiens) (UniProt Q8N568); experiment: Selectivity interaction (KinomeScan (DiscoverX)) EUB0001619a DCLK2; details: at 1 µM
T2 sequence (whole entry): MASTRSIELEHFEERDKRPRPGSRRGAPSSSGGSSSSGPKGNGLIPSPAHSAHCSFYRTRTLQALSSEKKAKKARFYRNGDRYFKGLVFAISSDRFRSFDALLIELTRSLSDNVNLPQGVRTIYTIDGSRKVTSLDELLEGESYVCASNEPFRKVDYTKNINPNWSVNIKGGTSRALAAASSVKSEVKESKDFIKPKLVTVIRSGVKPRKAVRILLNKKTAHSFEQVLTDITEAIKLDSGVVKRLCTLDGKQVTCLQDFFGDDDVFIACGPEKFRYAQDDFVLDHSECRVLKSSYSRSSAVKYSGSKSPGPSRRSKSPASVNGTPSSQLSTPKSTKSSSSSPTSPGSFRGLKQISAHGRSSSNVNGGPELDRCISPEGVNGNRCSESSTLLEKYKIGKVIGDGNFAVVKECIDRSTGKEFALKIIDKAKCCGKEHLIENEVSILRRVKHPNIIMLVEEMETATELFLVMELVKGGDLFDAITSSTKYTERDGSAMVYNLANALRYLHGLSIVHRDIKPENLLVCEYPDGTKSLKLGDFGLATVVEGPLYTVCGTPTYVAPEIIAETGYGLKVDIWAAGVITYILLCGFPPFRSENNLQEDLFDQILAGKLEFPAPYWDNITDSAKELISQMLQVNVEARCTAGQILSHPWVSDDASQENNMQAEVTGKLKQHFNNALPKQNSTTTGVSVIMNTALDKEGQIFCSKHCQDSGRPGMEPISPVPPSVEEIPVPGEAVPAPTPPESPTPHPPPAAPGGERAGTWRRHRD

SMILES: CCC(=O)N1CCN(c2ccc(-n3c(=O)ccc4cnc5ccc(-c6cnc7ccccc7c6)cc5c43)cc2C(F)(F)F)CC1
- % of control [1]: 100%

SMILES: N#Cc1cccc(-c2c[nH]c3ncnc(N4CCOCC4)c23)c1
- % of control [2]: 100%
